PubChem BioAssay (NCI)
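Tested at 5 concentrations; 48 h exposure; 96-well plates; endpoints linearly interpolated, else capped at highest concentration. GI50 = concentration required for 50% inhibition of growth. TGI: total growth inhibition.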

What was measured:
Assay in all cases: NCI anticancer screen, dose series, 48 h
786-0 renal = test system: 786-0 renal
A498 renal = test system: A498 renal
A549 NSCLC = test system: A549 NSCLC
ACHN renal = test system: ACHN renal
BT-549 breast = test system: BT-549 breast
CAKI-1 renal = test system: CAKI-1 renal
CCRF-CEM leukemia = test system: CCRF-CEM leukemia
COLO 205 colon = test system: COLO 205 colon
DU-145 prostate = test system: DU-145 prostate
EKVX NSCLC = test system: EKVX NSCLC
HCC-2998 colon = test system: HCC-2998 colon
HCT-116 colon = test system: HCT-116 colon
HCT-15 colon = test system: HCT-15 colon
HL-60(TB) leukemia = test system: HL-60(TB) leukemia
HOP-62 NSCLC = test system: HOP-62 NSCLC
HOP-92 NSCLC = test system: HOP-92 NSCLC
HS 578T breast = test system: HS 578T breast
HT29 colon = test system: HT29 colon
IGROV1 ovarian = test system: IGROV1 ovarian
K-562 leukemia = test system: K-562 leukemia
KM12 colon = test system: KM12 colon
M14 melanoma = test system: M14 melanoma
MALME-3M melanoma = test system: MALME-3M melanoma
MCF7 breast = test system: MCF7 breast
MDA-MB-231 breast = test system: MDA-MB-231 breast
MDA-MB-435 = test system: MDA-MB-435
MOLT-4 leukemia = test system: MOLT-4 leukemia

CNC(=O)c1c(NC(=O)c2ccccc2C(F)(F)F)sc2c1CCC(=O)C2
GI50 (786-0 renal): 3.8 µM | TGI (786-0 renal): > 100 µM | GI50 (A498 renal): 2.09 µM | TGI (A498 renal): 6.24 µM | GI50 (A549 NSCLC): 3.28 µM | TGI (A549 NSCLC): > 100 µM | GI50 (ACHN renal): 0.397 µM | TGI (ACHN renal): 2.03 µM | GI50 (BT-549 breast): 2.54 µM | TGI (BT-549 breast): > 100 µM | GI50 (CAKI-1 renal): 0.464 µM | TGI (CAKI-1 renal): 2.55 µM | GI50 (CCRF-CEM leukemia): 0.348 µM | TGI (CCRF-CEM leukemia): > 100 µM | GI50 (COLO 205 colon): 1.29 µM | TGI (COLO 205 colon): 3.12 µM | GI50 (DU-145 prostate): 4.45 µM | TGI (DU-145 prostate): > 100 µM | GI50 (EKVX NSCLC): 1.99 µM | TGI (EKVX NSCLC): 37.6 µM | GI50 (HCC-2998 colon): 2.96 µM | TGI (HCC-2998 colon): 15.2 µM | GI50 (HCT-116 colon): 0.384 µM | TGI (HCT-116 colon): 12.1 µM | GI50 (HCT-15 colon): 0.37 µM | TGI (HCT-15 colon): 10.5 µM | GI50 (HL-60(TB) leukemia): 0.339 µM | TGI (HL-60(TB) leukemia): 13.4 µM | GI50 (HOP-62 NSCLC): 3.44 µM | TGI (HOP-62 NSCLC): > 100 µM | GI50 (HOP-92 NSCLC): 1.2 µM | TGI (HOP-92 NSCLC): 3.39 µM | GI50 (HS 578T breast): 3.01 µM | TGI (HS 578T breast): > 100 µM | GI50 (HT29 colon): 1.45 µM | TGI (HT29 colon): 9.66 µM | GI50 (IGROV1 ovarian): 1.87 µM | TGI (IGROV1 ovarian): 17.8 µM | GI50 (K-562 leukemia): 0.417 µM | TGI (K-562 leukemia): > 100 µM | GI50 (KM12 colon): 4.29 µM | TGI (KM12 colon): 16.8 µM | GI50 (M14 melanoma): 2.51 µM | TGI (M14 melanoma): 33.5 µM | GI50 (MALME-3M melanoma): 2.26 µM | TGI (MALME-3M melanoma): 6.33 µM | GI50 (MCF7 breast): 1.91 µM | TGI (MCF7 breast): 11.9 µM | GI50 (MDA-MB-231 breast): 2 µM | TGI (MDA-MB-231 breast): 4.78 µM | GI50 (MDA-MB-435): 2.72 µM | TGI (MDA-MB-435): 11.2 µM | GI50 (MOLT-4 leukemia): 1.2 µM | TGI (MOLT-4 leukemia): > 100 µM
